Experimental data as given in US7361633B2, “Screening method and anti-tumor drug candidate obtained therefrom” (Ardana Bioscience Limited, priority 2002, dated 2008).
“Also recorded” adds a separate entry of the source.

Tests used:
ERK1/2 [1] = test: ERK1/2 phosphorylation immunoblot in JEG-3 cells; assay type: cell-based, human; settings: for extent of ERK1/2 phosphorylation (activation): 100 nM, 10 minutes
ERK1/2 [2] = test: ERK1/2 phosphorylation immunoblot in BPH-1 cells; assay type: cell-based, human; settings: for extent of ERK1/2 activation: FIG. 5 panel c
Text: The panel depicts a representative anti-phospho-ERK1/2 w-c lysate immunoblot of stimulated BPH-1 cell extracts. […] Each bar of the histogram represents the mean±s.e. mean of three to four experimental replicates. […] Panel c) depicts the extent of ERK1/2 activation in BPH-1 cells induced by stimulation with GnRH I, II, Ant 135-25 and Ant 135-18. […] Each bar of the histogram represents the mean± s.e. mean of three to four experimental replicates.

JNK2 = test: Phosphorylation of immunoprecipitated myc-JNK2 in JEG-3 cells; assay type: cell-based, human; settings: for activation (phosphorylation) of myc-JNK2: 100 nM; for effect of PTX pre-incubation on JNK phosphorylation: ligand 100 nM, PTX 16 h 200 ng/ml
Description: The activation of two other forms of mitogen-activated protein kinase (MAPK) was studied in JEG-3 and BPH-1 cells by overexpressing myc-tagged constructs of JNK2 or p38α. Immunoprecipitation of these constructs after GnRHR-ligand stimulation of either cell line allowed the degree of kinase activation to be assessed using antisera specific for the active, phosphorylated, form of the kinase. […] In both panel a and b, the dose of GnRH I employed was 100 nM. The respective histograms in each panel represent the mean±s.e. mean of three experimental replicate time courses.
The inset immunoblots depict the phosphorylation status of the immunoprecipitated JNK2 increasing while the level of total unphosphorylated protein (detected with α-JNK antisera) remains unchanged. The histogram below depicts the mean±s.e. mean of three experimental replicates of the above western blot. Stimulation of BPH-1 cells with the same range of ligands (Panel b) yields a similar pattern of MAPK activation, but in this case p38α. […] The inset immunoblots depict an increasing phosphorylation of p38α with no increase in total p38α protein. The histograin below depicts the mean±s.e. mean of three experimental replicates of the above western blot.
Stimulation of JNK in JEG-3 cells and p38 in BPH-1 cells and its sensitivity to pre-exposure to PTX was assessed by measuring the degree of activating phosphorylation of immunoprecipitated myc-JNK2 or myc-p38α. Panel a depicts a representative western blot of immunoprecipitated myc-JNK2 from JEG-3 cells stimulated with either GnRH I (100 nM) or Ant 135-25 (100 nM). The phosphorylation status of JNK was elevated by GnRH I and Ant135-25 with no significant alteration in total immunoprecipitated JNK levels (assessed by immunoblot with α-myc antisera). […] The histograms in panels b and c depict the mean±s.e. mean of three experimental replicates of the above western blot (panel a) experiments. Panel d depicts an identical experiment to that in panel a except that it is the phosphorylation status of immunoprecipitated myc-p38α that is being measured. […] The histograms in panels e and f depict the mean±s.e. mean of three experimental replicates of the above western blot (panel d) experiments.
Thus it appears that the ability of the GnRH-induced stimulation of either JEG-3 or BPH-1 cells is not correlated to their anti-proliferative action. […] Using specific antisera against the kinase active form of ERK5 (or BMK) we observed no specific activation of this form of MAPK however using antisera specifically recognising the active forms of either c-Jun N-terminal kinase (JNK) or p38 MAPK we noted that in JEG-3 cells there was a potent, yet delayed GnRH-induced activation of JNK and a similarly slow inset activation of p38 in the BPH-1 cells. The level of activation of the endogenous stress-activated protein kinases (SAPKs) was relatively small but greater than the GnRH-activated ERK levels in these cells. To further investigate the validity of the observed SAPK activation we transfected the tumour cell lines with myc-tagged JNK2 or p38α MAPK isoforms, stimulated the cells with GnRH and then immunoprecipitated with anti-myc sera and western blotted the immunoprecipitates for total JNK/p38 protein and active JNK/p38. In FIG. 7 (panel a) GnRH causes a demonstrable, time-dependent and protracted activation of the immunoprecipitated JNK2. Activation of JNK2 typically only occurred after 30 minutes of GnRH I stimulation. […] As with the activation of the JNK in the JEG-3 cells there was a considerable delay in the onset of the p38 activation unlike the ERK signalling events that typically occur and peak within 20 minutes of GnRH ligand application (FIG. 7, panel b).

[3] = test system: human JEG-3 choriocarcinoma cells; test: Anti-proliferative effect on JEG-3 cells, viable cell count after 5 days; assay type: cell-based; settings: 5 days continuous treatment, trypan blue exclusion
Description: (§1) Low cell density JEG-3 cell subcultures were treated for 5 days continuously with the indicated doses of GnRH I (a), GnRH II (b), antagonist 135-18 (c) or antagonist 135-25 (d) added directly to Dulbecco's modified Eagles medium supplemented with 10% FCS, glutamine and penicillin/streptomycin. Ligands were replenished every 24 h. At the end of the stimulation period cells were removed from the growth plates with trypsin and mixed with trypan blue dye (enters non-viable cells). Only viable cells were therefore counted using a haemocytometer in quadruplicate for each ligand dose. The bars in each histogram represent the mean±s.e. mean of n=4 experiments.
(§2) Each cell type was plated at an initial minimal confluency (10-20%) to allow for 5 days of normal continual cell growth that would not result in 100% cell confluency by day 5. Each ligand was incubated, in triplicate for every experimental concentration, with the cell monolayers for five days with replacement of the ligand every 12 h. At the end of the stimulation period the number of viable cells was estimated by their capacity to prevent uptake of Trypan Blue stain.

[4] = test system: human benign prostate hyperplastic (BPH-1) cells; test: Anti-proliferative effect on BPH-1 cells, viable cell count after 5 days; assay type: cell-based; settings: 5 days continuous treatment, trypan blue exclusion
Description: as §1, with “density BPH-1” for “density JEG-3”, “(b), Ant” for “(b), antagonist”, “or Ant” for “or antagonist”, “to RPMI 1640” for “to Dulbecco's modified Eagles”, “removed form” for “removed from”, “plates by” for “plates with”
as §2
Employing an identical growth and stimulation methodology to that described in the previous paragraph and in FIG. 1 we exposed the hyperplastic cell line, BPH-1, to the same panel of GnRH ligands and antagonistic analogues (FIG. 2). Reminiscent of FIG. 1 both endogenous GnRH agonists exert a similar mode of action with respect to their dose-dependent inhibition of BPH-1 cell growth over the five day stimulation period.

| Molecule | effect on GnRH I activation of ERK1/2 (ERK1/2 [1]; 20 μM SB203580, data not shown) | effect on GnRH-mediated ERK activation (ERK1/2 [2]; 1 μM SB203580, data not shown) | effect on GnRH I stimulation of JNK (JNK2; 20 μM SB203580, data not shown) | anti-proliferative effect (viable cell number) [3] | anti-proliferative effect (viable cell number) [4] | extent of ERK1/2 phosphorylation (activation) (ERK1/2 [1]) | extent of ERK1/2 activation (ERK1/2 [2]) | activation (phosphorylation) of myc-JNK2 (JNK2) | effect of PTX pre-incubation on JNK phosphorylation (JNK2) | anti-proliferative effect (viable cell number) ([3]; listed as Ant135-18) | anti-proliferative effect (viable cell number) ([4]; listed as Ant135-18) | extent of ERK1/2 phosphorylation (activation) (ERK1/2 [1]; listed as Ant135-18) | extent of ERK1/2 activation (ERK1/2 [2]; listed as Ant135-18) | activation (phosphorylation) of myc-JNK2 (JNK2; listed as Ant135-18) | ERK1/2 activation, dose dependence (ERK1/2 [2]; FIG. 5 panel a) | time to onset of JNK2 activation (JNK2) [min] |
| --- | --- | --- | --- | --- | --- | --- | --- | --- | --- | --- | --- | --- | --- | --- | --- | --- |
| C[S+]([O-])c1ccc(-c2nc(-c3ccncc3)c(-c3ccc(F)cc3)[nH]2)cc1 (stereo not drawn) [SB203580] | not significantly affecting the activation of ERK1/2 MAPKs | no significant effect | effectively abrogates the ability of GnRH I to stimulate JNK | – | – | – | – | – | – | – | – | – | – | – | – | – |
| Ac-D-Nal(2)-D-4-ClPhe-D-Pal-Ser-1-MePal-D-IsopropylLys-Leu-IsopropylLys-Pro-D-AlaNH2 [Ant 135-25] | – | – | – | clear dose-response relationships for the inhibition of cellular growth | anti-proliferative effect upon BPH-1 cells with a similar potency to that of GnRH I | activate ERK1/2 to a similar extent | A similar pattern to JEG-3 of ligand activation | can efficiently activate the myc-JNK2 construct | abolished with the PTX pre-incubation | – | – | – | – | – | – | – |
| Ac-D-Nal(2)-D-4-ClPhe-D-Pal-Ser-Ile-D-IsopropylLys-Leu-IsopropylLys-Pro-D -AlaNH2 [Ant 135-18] | – | – | – | much lower potency and efficacy compared to 135-25, GnRH I and II | much lower potency and efficacy compared to Ant 135-25 and GnRH I | least effective | A similar pattern to JEG-3 of ligand activation | fails to efficiently activate JNK | – | failed to demonstrate an anti-proliferative effect of a similar magnitude to that generated by GnRH I, GnRH II or Ant135-25 | low ant-proliferative potency | considerably less | considerably less | dramatically lower efficacy than GnRH I or Ant 135-25 | – | – |
| GnRH I: Gonadotropin-Releasing Hormone, a decapeptide; the original form of GnRH, re-named GnRH I | – | – | – | potent and dose-dependent anti-proliferative effect; also recorded: clear dose-response relationships for the inhibition of cellular growth | potent and dose-dependent anti-proliferative effect; also recorded: more potent that GnRH II in its capacity to arrest cell growth | activate ERK1/2 to a similar extent | A similar pattern to JEG-3 of ligand activation | significant activation of the immunoprecipitated myc-JNK2; also recorded: can efficiently activate the myc-JNK2 construct | abolished with the PTX pre-incubation | – | – | – | – | – | strong and dose-dependent activation of ERK1/2 | > 30 |
